Reference: US5730962A, “Depigmenting cosmetic or dermatologic composition containing a benzofuran derivative and its use in depigmentating skin” (L'Oreal, priority 1991, dated 1998)

tested on: fungus tyrosinase; experiment: in vitro inhibition test of the activity of tyrosinase (dopachrome formation, 475 nm); type: biochemical; conditions: inhibitor at 50 molar percent relative to tyrosine; 0.1M phosphate buffer pH 6.5; 25° C.; optical density at 475 nm at plateau
Source text: Certain ones of the benzofuran derivatives have been comparatively studied with respect to hydroquinone, at molar equivalent amounts, in the in vitro inhibition test of the activity of tyrosinase.
According to this test the amount of dopachrome formed during the course of the reaction chain for the transformation of tyrosine into melanins is followed by visible spectrometry at 475 nm. These reactions are catalyzed, in vitro, by fungus tyrosinase, in the presence of a reducing co-substrate(for example, L-dopa in a small amount) to initiate the hydroxylation reaction of L-tyrosine into L-dopa, which is then catalytically oxidized into dopaquinone, then into dopachrome, produced intermediate before the non-enzymatic oxidation reactions terminating in the formation of melanins.
The concentration of dopachrome formed during the course of time in the presence and in the absence of the inhibitor is then measured.
The concentrations of inhibitors are fixed at 50 molar percent relative to the tyrosine concentration in the reaction medium.
The inhibition effect is expressed by the reduction of the maximum amount of dopachrome formed (optical density value at 475 nm read at the plateau of the curve) relative to the amount obtained in the absence of inhibitor.
A--0.1M phosphate buffer pH=6.5 (TWEEN 20 at 1%)
B--L-tyrosine mother solution at 2×10^-3 M in A
C--L-dopa mother solution at 10^-4 M in A
D--Fungus tyrosinase mother solution at 2,400 units/ml in A
E--Inhibitor mother solution at 10^-2 M in A (solutions C and D are prepared the same day).
Homogenize and equilibrate at 25° C.
rapidly mix and observe the kinetics by the measurement of the absorbance at 475 nm as a function of time.

First: Oc1ccc2occc2c1
Second: Oc1ccc2ccoc2c1
The “% inhibitor (reduction of the maximum amount of dopachrome formed relative to the amount obtained in the absence of inhibitor)” value of the first is higher: 56% for the first, 54% for the second.

First: Oc1ccc2c(c1)OCC2
Second: Oc1ccc(O)cc1 [hydroquinone, reference compound]
The “% inhibitor (reduction of the maximum amount of dopachrome formed relative to the amount obtained in the absence of inhibitor)” value of the first is higher: 66% for the first, 33% for the second.
